Consider 35 molecules from US12421217B2, “Pyrazine derivative or salt thereof, and use of same” (FUJIFILM Corporation, priority 2019, dated 2025).

The structures appear in SMILES notation.

The target in test [1] is T1, recombinant human DHODH (Homo sapiens, UniProt Q02127).
T1 construct: DHODH, 31-395 aa, Human, His tag, E. coli, ATGP1615; His tag; purchased ATGen Co. Ltd. ATGP1615; host or cells: E. coli
Briefly: Enzyme reaction inhibition test (DHODH enzyme assay, DCIP quenching). The test is classed as biochemical. As to conditions: DCIP absorbance 600 nm, 50 minutes, read-out: Enzyme reaction inhibitory effect (IC50). Here is the method: The DHODH enzyme assay was carried out with reference to “Benjamin Bader, Wolfgang Knecht, Markus Fries, and Monika Loffler. Expression, Purification, and Characterization of Histidine-Tagged Rat and Human Flavoenzyme Dihydroorotate Dehydrogenase. Protein Expression and Purification, 1998, 13, 414-422.”
The DHODH activity was evaluated using an enzyme assay system that is coupled with an assay in which a blue coloring agent 2,6-dichlorophenol indophenol (DCIP, available from MP Biomedicals, LLC, MP150118) is quenched. Purified recombinant human DHODH (DHODH, 31-395 aa, Human, His tag, E. coli, ATGP1615) was purchased from ATGen Co. Ltd. The enzyme assay was carried out in a 384-well plate using a buffer solution containing 100 mmol/L Hepes (available from Dojindo Laboratories, 342-01375), 400 mmol/L NaCl (available from FUJIFILM Wako Pure Chemical Corporation, 191-01665), 10% Glycerol (available from FUJIFILM Wako Pure Chemical Corporation, 075-00616), 0.05% Triton X-100 (available from Sigma-Aldrich Co., LLC, T8787-100ML), 0.2 mmol/L Ubiquinone-10 (available from FUJIFILM Wako Pure Chemical Corporation, 216-00761), 0.1 mmol/L DHO (L-dihydroorotic acid, available from Sigma-Aldrich Co., LLC, D7128), 0.5% DMSO (dimethylsulfoxide, available from FUJIFILM Wako Pure Chemical Corporation, 047-29353), 0.175 μg/mL DHODH, and 0.12 mmol/L DCIP and having a pH adjusted to 8.0 by adding 5 mol/L potassium hydroxide (available from FUJIFILM Wako Pure Chemical Corporation, 168-21815). A test compound with a predetermined concentration was added using Biomek NX (available from Beckman Coulter Inc.), and the enzymatic reaction was started by adding the substrate. The enzyme activity was assessed by measuring the decrease in DCIP absorbance (600 nm) for 50 minutes using an EnVision plate-reading spectrophotometer (available from PerkinElmer, Inc.).
The enzyme reaction inhibition rate at each test compound concentration was determined, and the 50% enzyme reaction inhibition concentration [IC50 (nmol/L)] was calculated using XLfit. Enzyme reaction inhibition rate (%)=(amount of luminescence in test compound-added well)/(amount of luminescence in DMSO-added well)×100
The abbreviations in the table have the following meanings. • A: IC50 value<10 nmol/L • B: 10 nmol/L≤IC50 value<100 nmol/L • C: 100 nmol/L≤IC50 value

The subject of test [2] is human myeloid leukemia cell line HL60. The test is described as follows: Cell growth test (Cell Titer Glo). In kind it is cell-based. As to conditions: HL-60, 72 h, HL60 cells, 3 days, read-out: Cell growth inhibitory effect (GI50). Here is the method:
The cell growth test was carried out using the human myeloid leukemia cell line HL60 (available from ATCC, CRL-240). As a culture medium of HL60 cells, RPMI 1640 (available from FUJIFILM Wako Pure Chemical Corporation, 189-02025) supplemented with 10% fetal bovine serum (available from Thermo Fisher Scientific, Inc., 10437-028), and 1% penicillin-streptomycin (10,000 U/mL, available from Thermo Fisher Scientific, Inc., 15140-122) was used. HL60 cells were seeded on a 384-well plate (available from Corning Inc., 4588) at a cell density of 1×10^3 cells/20 μL/well. After culturing overnight, 5 μL of the test compound having a predetermined concentration was added, and 3 days later, 25 μL of Cell Titer Glo (registered trademark) Luminescent Cell Viability Assay (available from Promega Corporation, G7573) was added, and then the amount of luminescence was measured using an EnVision plate reader (available from PerkinElmer, Inc.). Since the amount of luminescence is proportional to the intracellular concentration of adenosine triphosphate (ATP), the amount of luminescence was used as an indicator of the number of viable cells. The growth inhibitory concentration for each test compound concentration was calculated by the following expression.
The growth inhibition rate at each test compound concentration was determined, and the 50% growth inhibitory concentration [GI50 (nmol/L)] was calculated using XLfit. Growth inhibition rate (%)=(amount of luminescence in test compound-added well)/(amount of luminescence in DMSO-added well)×100
The abbreviations in the table have the following meanings. • A: GI50 value<100 nmol/L • B: 100 nmol/L≤GI50 value<1,000 nmol/L • C: 1,000 nmol/L≤GI50 value
For orientation: ATP-based viability assays read luminescence as a measure of living cells.

T1 sequence (Q02127 31-395): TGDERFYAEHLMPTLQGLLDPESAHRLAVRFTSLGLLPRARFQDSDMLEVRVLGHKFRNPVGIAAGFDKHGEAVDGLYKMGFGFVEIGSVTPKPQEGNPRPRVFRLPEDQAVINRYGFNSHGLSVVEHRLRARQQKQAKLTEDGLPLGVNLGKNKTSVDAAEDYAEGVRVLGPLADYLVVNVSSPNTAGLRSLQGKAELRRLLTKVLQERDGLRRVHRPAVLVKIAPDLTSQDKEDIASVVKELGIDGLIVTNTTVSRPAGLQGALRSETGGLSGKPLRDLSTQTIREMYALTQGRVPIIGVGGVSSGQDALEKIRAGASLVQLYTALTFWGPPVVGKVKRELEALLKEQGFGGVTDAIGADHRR

Take `COC(=O)c1nc(C2CC2)cnc1Nc1cccc(C2=CCOCC2)c1OCC(F)(F)F` [Example 1, methyl 6-cyclopropyl-3-((3-(3,6-dihydro-2H-pyran-4-yl)-2-(2,2,2-trifluoroethoxy)phenyl)amino)pyrazine-2-carboxylate]: in test [1], the IC50 (usually the point on the concentration scale where inhibition reaches its midpoint) was ≥ 0.1 µM. For the same molecule, the GI50 (usually the concentration at which growth is held to half of that of the control) in test [2] fell in the range of 0.1 to 1 µM.
`O=C(O)c1nc(C2CC2)cnc1Nc1cc(F)cc(C2=CCOCC2)c1OCC(F)(F)F` [Example 5, 6-cyclopropyl-3-((3-(3,6-dihydro-2H-pyran-4-yl)-5-fluoro-2-(2,2,2-trifluoroethoxy)phenyl)amino) pyrazine-2-carboxylic acid]: in test [1], the IC50 is < 0.01 µM. Besides, in test [2], the 50% growth inhibitory concentration (GI50) is < 0.1 µM.
Turning to `O=C(O)c1nc(C2CC2)cnc1Nc1cc(F)cc(C2CCOCC2)c1OCC(F)(F)F` [Example 6, 6-cyclopropyl-3-((5-fluoro-3-(tetrahydro-2H-pyran-4-yl)-2-(2,2,2-trifluoroethoxy)phenyl)amino) pyrazine-2-carboxylic acid], in test [1], the IC50 was < 0.01 µM. The GI50 in test [2] is < 0.1 µM.
Taken in the same sequence, the figures for `O=C(O)c1nc(C2CC2)cnc1Nc1cc(F)cc(C2CCOCC2)c1OC(F)F` [Example 11, 6-cyclopropyl-3-((2-(difluoromethoxy)-5-fluoro-3-(tetrahydro-2H-pyran-4-yl)phenyl)amino)pyrazine-2-carboxylic acid] were < 0.01 µM and < 0.1 µM.
As to `CCc1c(Nc2ncc(C3CC3)nc2C(=O)O)cccc1C1CCOCC1` [Example 12, 6-cyclopropyl-3-((2-ethyl-3-(tetrahydro-2H-pyran-4-yl)phenyl)amino)pyrazine-2-carboxylic acid], the IC50 in test [1] is < 0.01 µM. For the same molecule, the GI50 in test [2] was < 0.1 µM.
For the molecule `O=C(O)c1nc(C2CC2)cnc1Nc1cccc(C2=CCOCC2)c1OC(F)F` [Example 14, 6-cyclopropyl-3-((2-(difluoromethoxy)-3-(3,6-dihydro-2H-pyran-4-yl)phenyl)amino)pyrazine-2-carboxylic acid], in test [1], the IC50 is < 0.01 µM. Also, the GI50 in test [2] was in the range of 0.1 to 1 µM.
For the molecule `O=C(O)c1nc(C2CC2)cnc1Nc1cc(F)cc(C2=CCOCC2)c1OC(F)F` [Example 19-1], in test [1], the IC50 is < 0.01 µM. Besides, the GI50 in test [2] was 0.1 to 1 µM.
On the same counts, the results for `CCOc1c(C2=CCOCC2)cc(F)c(F)c1Nc1ncc(C2CC2)nc1C(=O)O` [Example 19-2] are 0.01 to 0.1 µM and 0.1 to 1 µM.
As for `O=C(O)c1nc(C2CC2)cnc1Nc1cccc(C2=CCOCC2)c1OCC(F)F` [Example 19-3], in test [1], the IC50 was < 0.01 µM. Besides, in test [2], the GI50 is 0.1 to 1 µM.
For the molecule `Cc1c(Nc2ncc(C3CC3)nc2C(=O)O)cc(F)cc1C1=CCOCC1` [Example 19-4], the IC50 in test [1] fell in the range of 0.01 to 0.1 µM. Further, the GI50 in test [2] lay within 0.1 to 1 µM.
For the molecule `CCOc1c(Nc2ncc(C3CC3)nc2C(=O)O)cc(F)cc1C1=CCOCC1` [Example 19-5], in test [1], the IC50 is 0.01 to 0.1 µM. Besides, in test [2], the GI50 is 0.1 to 1 µM.
`CC(Oc1c(Nc2ncc(C3CC3)nc2C(=O)O)cccc1C1=CCOCC1)C(F)(F)F` (stereo not shown) [Example 19-6]: the IC50 in test [1] fell in the range of 0.01 to 0.1 µM. The GI50 in test [2] lay in the range of 0.1 to 1 µM.
Regarding `O=C(O)c1nc(C2CC2)cnc1Nc1cccc(C2=CCOCC2)c1OCC(F)(F)C(F)(F)F` [Example 19-7], the IC50 in test [1] was < 0.01 µM. In test [2], the GI50 was < 0.1 µM.
On the same counts, the results for `O=C(O)c1nc(C2CC2)cnc1Nc1cccc(C2=CCOCC2)c1OCCC(F)(F)F` [Example 19-8] are < 0.01 µM and < 0.1 µM.
For the molecule `O=C(O)c1nc(C2CC2)cnc1Nc1cccc(C2=CCOCC2)c1COCC(F)(F)F` [Example 19-10], the half-maximal inhibitory concentration (IC50) in test [1] lay within 0.01 to 0.1 µM. In addition, the concentration for 50% growth inhibition (GI50) in test [2] is 0.1 to 1 µM.
On the same counts, the results for `O=C(O)c1nc(C2CC2)cnc1Nc1cccc(C2CCOCC2)c1C1CC1` [Example 19-12] are < 0.01 µM and 0.1 to 1 µM.
Taken in the same sequence, the figures for `CC(C)c1c(Nc2ncc(C3CC3)nc2C(=O)O)cccc1C1CCOCC1` [Example 19-13] were < 0.01 µM and 0.1 to 1 µM.
On the same counts, the results for `CC1=C(c2cccc(Nc3ncc(C4CC4)nc3C(=O)O)c2OCC(F)(F)F)CCOC1` [Example 19-14] are < 0.01 µM and < 0.1 µM.
On to `O=C(O)c1nc(C2CC2)cnc1Nc1cccc(C2CCOCC2)c1CCC(F)(F)F` [Example 19-15], for which the IC50 in test [1] was < 0.01 µM. In test [2], the 50% growth inhibitory concentration (GI50) was < 0.1 µM.
Take `CCCc1c(Nc2ncc(C3CC3)nc2C(=O)O)cccc1C1=CCOCC1` [Example 19-16]: the IC50 in test [1] was in the range of 0.01 to 0.1 µM. The GI50 in test [2] was in the range of 0.1 to 1 µM.
Turning to `CCCCc1c(Nc2ncc(C3CC3)nc2C(=O)O)cccc1C1CCOCC1` [Example 19-17], the IC50 in test [1] is < 0.01 µM. The GI50 in test [2] lay in the range of 0.1 to 1 µM.
As to `O=C(O)c1nc(C2CC2)cnc1Nc1cccc(C2CCOCC2)c1CC(F)(F)F` [Example 19-18], the IC50 in test [1] lay within 0.01 to 0.1 µM. Besides, in test [2], the 50% growth inhibitory concentration (GI50) is 0.1 to 1 µM.
Regarding `O=C(O)c1nc(C2CC2)cnc1Nc1cccc(C2CCOCC2)c1CCF` [Example 19-19], in test [1], the IC50 lay within 0.01 to 0.1 µM. Moreover, the GI50 in test [2] was ≥ 1 µM.
As for `COc1c(Nc2ncc(C3CC3)nc2C(=O)O)cccc1C1=CCOCC1` [Example 19-20], the IC50 in test [1] is 0.01 to 0.1 µM. Further, the GI50 in test [2] is ≥ 1 µM.
Taken in the same sequence, the figures for `CCOc1c(Nc2ncc(C3CC3)nc2C(=O)O)cccc1C1=CCOCC1` [Example 19-21] were 0.01 to 0.1 µM and 0.1 to 1 µM.
On to `O=C(O)c1nc(C2CC2)cnc1Nc1cccc(C2=CCOCC2)c1F` [Example 19-22], for which the IC50 in test [1] was 0.01 to 0.1 µM. In test [2], the GI50 was ≥ 1 µM.
For the molecule `CCOc1ccc(Nc2ncc(C3CC3)nc2C(=O)O)c(OCC)c1C1=CCOCC1` [Example 19-23], the IC50 in test [1] was 0.01 to 0.1 µM. Besides, the GI50 in test [2] lay within 0.1 to 1 µM.
With `CCOc1ccc(Nc2ncc(C3CC3)nc2C(=O)O)cc1C1=CCOCC1` [Example 19-24], the IC50 in test [1] was 0.01 to 0.1 µM. In addition, the GI50 in test [2] lay in the range of 0.1 to 1 µM.
For `CCOc1c(Nc2ncc(C3CC3)nc2C(=O)O)ccc(F)c1C1=CCOCC1` [Example 19-25], the IC50 in test [1] is < 0.01 µM. Further, the GI50 in test [2] lay in the range of 0.1 to 1 µM.
`O=C(O)c1nc(C2CC2)cnc1Nc1ccc(F)c(C2=CCOCC2)c1F` [Example 19-26]: in test [1], the IC50 was in the range of 0.01 to 0.1 µM. In addition, the GI50 in test [2] is ≥ 1 µM.
Take `O=C(O)c1nc(C2CC2)cnc1Nc1cccc(C2=CCOCC2)c1CCCF` [Example 19-27]: the IC50 in test [1] is 0.01 to 0.1 µM. The GI50 in test [2] fell in the range of 0.1 to 1 µM.
On the same counts, the results for `O=C(O)c1nc(C2CC2)cnc1Nc1cccc(C2CCOCC2)c1CCC(F)F` [Example 19-28] are < 0.01 µM and < 0.1 µM.
In the case of `O=C(O)c1nc(C2CC2)cnc1Nc1cccc(C2CCOCC2)c1CC(F)F` [Example 19-29], in test [1], the IC50 is 0.01 to 0.1 µM. Moreover, the concentration for 50% growth inhibition (GI50) in test [2] was < 0.1 µM.
For the molecule `CC(C)c1cnc(Nc2cccc(C3=CCOCC3)c2OCC(F)(F)F)c(C(=O)O)n1` [Example 19-31], in test [1], the IC50 was 0.01 to 0.1 µM. The GI50 in test [2] was 0.1 to 1 µM.
Turning to `CCc1cnc(Nc2cccc(C3=CCOCC3)c2OCC(F)(F)F)c(C(=O)O)n1` [Example 19-32], the IC50 in test [1] was in the range of 0.01 to 0.1 µM. For the same molecule, the GI50 in test [2] was 0.1 to 1 µM.
